Active and inactive are the calls of the source. No cut-off for these calls is given here.
Assays:
Jurkat = test: Antiproliferative activity against human Jurkat cells assessed as inhibition of cell growth incubated for 72 hrs by celltiter-glo assay; type: functional, cell-based
PC-3 = test: Antiproliferative activity against human PC-3 cells assessed as inhibition of cell growth incubated for 72 hrs by celltiter-glo assay; type: functional, cell-based; details: PC-3, 72 h
MOLM-13 = test: Antiproliferative activity against human MOLM-13 cells assessed as inhibition of cell growth incubated for 72 hrs by celltiter-glo assay; type: functional, cell-based; details: MOLM-13, 72 h
SK-MEL-5 = test: Antiproliferative activity against human SK-MEL-5 cells assessed as inhibition of cell growth incubated for 72 hrs by celltiter-glo assay; type: functional, cell-based; details: SK-MEL-5, 72 h
KM12 = test: Antiproliferative activity against human KM12 cells assessed as inhibition of cell growth incubated for 72 hrs by celltiter-glo assay; type: functional, cell-based; details: KM12, 72 h
SK-MEL-2 = test: Antiproliferative activity against human SK-MEL-2 cells assessed as inhibition of cell growth incubated for 72 hrs by celltiter-glo assay; type: functional, cell-based; details: SK-MEL-2, 72 h
HeLa [1] = test: Effect on HEC1 level in human nocodazole-arrested HeLa cells at 1 micromol/L in presence of MG132; type: functional, cell-based; details: dose 1.0 µmol/L
[2] = Inhibition of recombinant CDK2/CYCA (unknown origin); set-up: species or system Homo sapiens
BXPC-3 = test: Antiproliferative activity against human BXPC-3 cells assessed as inhibition of cell growth incubated for 72 hrs by celltiter-glo assay; type: functional, cell-based; details: BXPC-3, 72 h
SW48 = test: Antiproliferative activity against human SW48 cells assessed as inhibition of cell growth incubated for 72 hrs by celltiter-glo assay; type: functional, cell-based; details: SW48, 72 h
[3] = target: MAP kinase-activated protein kinase 2 (Homo sapiens, UniProt P49137); test: Inhibition of recombinant MAPKAPK2 (unknown origin)
MAP kinase-activated protein kinase 2, sequence (P49137 whole entry): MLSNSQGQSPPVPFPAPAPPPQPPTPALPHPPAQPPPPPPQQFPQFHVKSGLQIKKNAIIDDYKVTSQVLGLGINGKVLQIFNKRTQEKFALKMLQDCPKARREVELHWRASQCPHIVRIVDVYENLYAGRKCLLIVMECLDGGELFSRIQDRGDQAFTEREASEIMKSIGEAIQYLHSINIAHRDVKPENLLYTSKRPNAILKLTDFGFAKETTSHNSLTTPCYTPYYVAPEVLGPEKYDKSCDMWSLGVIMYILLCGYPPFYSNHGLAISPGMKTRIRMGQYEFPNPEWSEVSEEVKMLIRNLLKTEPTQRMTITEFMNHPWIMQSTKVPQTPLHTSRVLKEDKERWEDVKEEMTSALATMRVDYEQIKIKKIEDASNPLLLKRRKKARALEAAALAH

U2OS = test: Induction of mitotic arrest in human U2OS cells expressing YFP-alpha-tubulin assessed as reduction in mitotic cells at 1 micromol/L by time-lapse microscopic analysis; type: functional, cell-based; details: dose 1.0 µmol/L
[4] = target: High affinity nerve growth factor receptor (Homo sapiens, UniProt P04629); test: Inhibition of recombinant TRKA (unknown origin)
High affinity nerve growth factor receptor, sequence (P04629 whole entry): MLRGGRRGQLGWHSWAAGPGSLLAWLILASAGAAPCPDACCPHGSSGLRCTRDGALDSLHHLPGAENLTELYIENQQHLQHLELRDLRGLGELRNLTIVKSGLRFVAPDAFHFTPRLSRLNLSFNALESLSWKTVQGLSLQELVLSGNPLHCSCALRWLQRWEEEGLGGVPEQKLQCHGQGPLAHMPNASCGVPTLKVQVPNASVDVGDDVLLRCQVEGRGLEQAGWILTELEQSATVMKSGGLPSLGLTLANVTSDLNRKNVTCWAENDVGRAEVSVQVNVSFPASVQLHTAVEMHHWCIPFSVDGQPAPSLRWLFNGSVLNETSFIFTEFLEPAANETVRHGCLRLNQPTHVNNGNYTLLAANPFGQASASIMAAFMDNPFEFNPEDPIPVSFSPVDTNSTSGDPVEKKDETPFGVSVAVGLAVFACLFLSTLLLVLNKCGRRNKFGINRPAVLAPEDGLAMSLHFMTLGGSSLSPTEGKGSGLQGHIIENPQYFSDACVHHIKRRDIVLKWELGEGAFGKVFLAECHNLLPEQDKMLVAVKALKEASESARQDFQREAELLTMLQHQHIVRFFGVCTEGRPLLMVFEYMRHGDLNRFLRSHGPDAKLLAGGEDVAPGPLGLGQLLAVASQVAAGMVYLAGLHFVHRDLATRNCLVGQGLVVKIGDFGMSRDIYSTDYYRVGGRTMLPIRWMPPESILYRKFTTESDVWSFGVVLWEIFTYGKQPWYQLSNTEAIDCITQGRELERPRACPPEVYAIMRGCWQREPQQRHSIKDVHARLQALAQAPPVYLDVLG

C-33-A = test: Antiproliferative activity against human C-33-A cells assessed as inhibition of cell growth incubated for 72 hrs by celltiter-glo assay; type: functional, cell-based
KARPAS-299 = test: Antiproliferative activity against human KARPAS-299 cells assessed as inhibition of cell growth incubated for 72 hrs by celltiter-glo assay; type: functional, cell-based; details: KARPAS-299, 72 h
[5] = Antiproliferative activity against human GM14788 cells assessed as inhibition of cell growth incubated for 72 hrs by celltiter-glo assay; type: functional, cell-based; details: GM14788, 72 h
SF-295 = test: Antiproliferative activity against human SF-295 cells assessed as inhibition of cell growth incubated for 72 hrs by celltiter-glo assay; type: functional, cell-based; details: SF-295, 72 h
[6] = Clearance in Athymic nu-nu mouse at 10 mg/kg, iv measured upto 24 hrs by LC-MS/MS analysis; type: ADME, organism-based; details: in vivo
Focal adhesion kinase 1 = Focal adhesion kinase 1 (Homo sapiens, UniProt Q05397); test: Inhibition of recombinant FAK (unknown origin)
Focal adhesion kinase 1, sequence (Q05397 whole entry): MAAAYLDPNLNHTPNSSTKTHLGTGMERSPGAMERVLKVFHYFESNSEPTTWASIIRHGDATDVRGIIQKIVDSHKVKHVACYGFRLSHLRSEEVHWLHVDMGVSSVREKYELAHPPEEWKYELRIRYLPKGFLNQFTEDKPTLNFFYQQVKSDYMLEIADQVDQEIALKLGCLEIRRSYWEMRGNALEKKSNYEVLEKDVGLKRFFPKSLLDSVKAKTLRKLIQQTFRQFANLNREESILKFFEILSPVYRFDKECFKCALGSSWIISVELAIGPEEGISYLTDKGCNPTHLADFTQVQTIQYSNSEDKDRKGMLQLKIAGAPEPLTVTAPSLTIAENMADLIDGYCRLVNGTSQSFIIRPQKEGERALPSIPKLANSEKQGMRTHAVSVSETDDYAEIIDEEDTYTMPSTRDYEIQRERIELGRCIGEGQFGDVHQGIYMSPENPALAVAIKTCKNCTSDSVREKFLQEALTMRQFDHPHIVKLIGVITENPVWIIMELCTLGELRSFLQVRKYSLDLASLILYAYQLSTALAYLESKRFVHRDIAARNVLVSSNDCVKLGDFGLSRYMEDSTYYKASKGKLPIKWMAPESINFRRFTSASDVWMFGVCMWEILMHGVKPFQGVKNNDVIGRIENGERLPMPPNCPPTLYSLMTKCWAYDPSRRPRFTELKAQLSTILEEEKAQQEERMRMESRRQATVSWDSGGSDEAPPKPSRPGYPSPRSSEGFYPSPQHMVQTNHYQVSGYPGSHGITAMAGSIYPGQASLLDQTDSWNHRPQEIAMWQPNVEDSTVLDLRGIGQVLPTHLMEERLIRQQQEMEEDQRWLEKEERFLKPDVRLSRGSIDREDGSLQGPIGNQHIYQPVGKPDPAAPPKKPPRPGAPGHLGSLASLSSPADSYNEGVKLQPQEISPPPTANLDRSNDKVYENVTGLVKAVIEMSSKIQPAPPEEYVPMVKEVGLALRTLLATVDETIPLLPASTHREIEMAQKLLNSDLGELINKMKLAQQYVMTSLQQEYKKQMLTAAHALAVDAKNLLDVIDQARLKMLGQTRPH

NCI-H889 = test: Antiproliferative activity against human NCI-H889 cells assessed as inhibition of cell growth incubated for 72 hrs by celltiter-glo assay; type: functional, cell-based; details: NCI-H889, 72 h
NCI-H2228 = test: Antiproliferative activity against human NCI-H2228 cells assessed as inhibition of cell growth incubated for 72 hrs by celltiter-glo assay; type: functional, cell-based; details: NCI-H2228, 72 h
HeLa [7] = test: Effect on CENPB level in human nocodazole-arrested HeLa cells at 1 micromol/L in presence of MG132; type: functional, cell-based; details: dose 1.0 µmol/L
CAKI-1 = test: Antiproliferative activity against human CAKI-1 cells assessed as inhibition of cell growth incubated for 72 hrs by celltiter-glo assay; type: functional, cell-based; details: CAKI-1, 72 h
NCI-H23 = test: Antiproliferative activity against human NCI-H23 cells assessed as inhibition of cell growth incubated for 72 hrs by celltiter-glo assay; type: functional, cell-based; details: NCI-H23, 72 h
HeLa [8] = test: Inhibition of cdc20-BUB3 protein-protein interaction in human nocodazole arrested HeLa cells by Coimmunoprecipitation analysis; type: cell-based
SK-MEL-28 = test: Antiproliferative activity against human SK-MEL-28 cells assessed as inhibition of cell growth incubated for 72 hrs by celltiter-glo assay; type: functional, cell-based; details: SK-MEL-28, 72 h
[9] = target: Mast/stem cell growth factor receptor Kit (Homo sapiens, UniProt P10721); test: Inhibition of recombinant KIT (unknown origin)
Mast/stem cell growth factor receptor Kit, sequence (P10721 whole entry): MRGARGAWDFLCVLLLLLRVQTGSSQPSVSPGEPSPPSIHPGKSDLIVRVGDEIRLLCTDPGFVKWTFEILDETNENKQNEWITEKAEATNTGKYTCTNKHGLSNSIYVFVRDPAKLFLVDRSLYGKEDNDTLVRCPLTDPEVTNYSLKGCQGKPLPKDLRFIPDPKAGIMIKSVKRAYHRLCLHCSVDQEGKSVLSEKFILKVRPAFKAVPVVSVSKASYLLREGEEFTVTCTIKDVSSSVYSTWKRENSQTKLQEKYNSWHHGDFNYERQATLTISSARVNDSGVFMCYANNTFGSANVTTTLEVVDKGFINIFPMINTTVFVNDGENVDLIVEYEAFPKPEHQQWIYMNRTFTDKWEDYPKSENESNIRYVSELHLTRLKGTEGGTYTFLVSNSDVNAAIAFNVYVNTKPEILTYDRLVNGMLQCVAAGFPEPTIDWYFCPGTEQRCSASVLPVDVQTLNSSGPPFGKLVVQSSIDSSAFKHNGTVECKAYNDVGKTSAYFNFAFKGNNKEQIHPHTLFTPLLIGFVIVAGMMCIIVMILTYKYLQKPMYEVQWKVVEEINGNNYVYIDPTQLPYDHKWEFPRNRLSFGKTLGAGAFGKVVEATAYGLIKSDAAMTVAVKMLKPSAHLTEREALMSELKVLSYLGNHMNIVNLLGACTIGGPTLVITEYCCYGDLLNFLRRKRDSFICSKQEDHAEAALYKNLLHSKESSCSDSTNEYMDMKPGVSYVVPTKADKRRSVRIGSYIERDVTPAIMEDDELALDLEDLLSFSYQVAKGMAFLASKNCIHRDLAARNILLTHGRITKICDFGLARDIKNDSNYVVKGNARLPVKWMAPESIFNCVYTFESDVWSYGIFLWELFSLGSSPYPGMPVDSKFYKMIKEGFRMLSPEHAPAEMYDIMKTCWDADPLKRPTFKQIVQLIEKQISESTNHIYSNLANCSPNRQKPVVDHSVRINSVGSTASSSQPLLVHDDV

SF-268 = test: Antiproliferative activity against human SF-268 cells assessed as inhibition of cell growth incubated for 72 hrs by celltiter-glo assay; type: functional, cell-based; details: SF-268, 72 h
[10] = Inhibition of recombinant PDGFR (unknown origin); set-up: species or system Homo sapiens
MIA PaCa-2 = test: Antiproliferative activity against human MIA PaCa-2 cells assessed as inhibition of cell growth incubated for 72 hrs by celltiter-glo assay; type: functional, cell-based; details: MIA PaCa-2, 72 h
[11] = target: Serine/threonine-protein kinase PAK 4 (Homo sapiens, UniProt O96013); test: Inhibition of recombinant PAK4 (unknown origin)
Serine/threonine-protein kinase PAK 4, sequence (O96013 whole entry): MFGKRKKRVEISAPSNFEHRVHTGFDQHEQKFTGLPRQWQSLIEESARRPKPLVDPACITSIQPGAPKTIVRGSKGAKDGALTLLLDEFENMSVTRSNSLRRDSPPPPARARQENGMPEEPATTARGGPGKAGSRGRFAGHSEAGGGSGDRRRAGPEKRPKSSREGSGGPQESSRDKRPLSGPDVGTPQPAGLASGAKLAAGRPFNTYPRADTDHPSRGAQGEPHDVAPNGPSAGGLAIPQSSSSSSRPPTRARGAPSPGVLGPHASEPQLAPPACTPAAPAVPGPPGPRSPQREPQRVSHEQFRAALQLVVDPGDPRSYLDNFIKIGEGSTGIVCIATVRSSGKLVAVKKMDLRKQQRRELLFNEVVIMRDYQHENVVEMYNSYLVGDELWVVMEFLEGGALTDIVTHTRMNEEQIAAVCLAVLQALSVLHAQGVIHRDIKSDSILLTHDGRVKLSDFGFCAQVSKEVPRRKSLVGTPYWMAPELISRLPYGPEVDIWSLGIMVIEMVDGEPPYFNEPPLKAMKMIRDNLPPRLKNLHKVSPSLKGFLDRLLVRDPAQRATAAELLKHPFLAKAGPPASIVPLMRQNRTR

EKVX = test: Antiproliferative activity against human EKVX cells assessed as inhibition of cell growth incubated for 72 hrs by celltiter-glo assay; type: functional, cell-based
HeLa [12] = test: Induction of mitotic arrest in human nocodazole-arrested HeLa cells assessed as delocalization of MAD1 in presence of MG132; type: functional, cell-based
A-431 = test: Antiproliferative activity against human A-431 cells assessed as inhibition of cell growth incubated for 72 hrs by celltiter-glo assay; type: functional, cell-based; details: A-431, 72 h
NCI-H522 = test: Antiproliferative activity against human NCI-H522 cells assessed as inhibition of cell growth incubated for 72 hrs by celltiter-glo assay; type: functional, cell-based; details: NCI-H522, 72 h
A2780 = test: Cell cycle arrest in human A2780 cells assessed as accumulation of cells at sub-G1 phase at 0.2 to 1 micromol/L incubated for 72 hrs by FACS/PI staining based flow cytometric analysis; type: functional; details: dose 0.2-1 µmol/L
NCI-H82 = test: Antiproliferative activity against human NCI-H82 cells assessed as inhibition of cell growth incubated for 72 hrs by celltiter-glo assay; type: functional, cell-based; details: NCI-H82, 72 h
COLO-678 = test: Antiproliferative activity against human COLO-678 cells assessed as inhibition of cell growth incubated for 72 hrs by celltiter-glo assay; type: functional, cell-based; details: COLO-678, 72 h
HeLa [13] = test: Induction of mitotic arrest in human nocodazole-arrested HeLa cells assessed as delocalization of borealin at 1 micromol/L in presence of MG132; type: functional, cell-based; details: dose 1.0 µmol/L
SW-620 = test: Antiproliferative activity against human SW620 cells assessed as inhibition of cell growth incubated for 72 hrs by celltiter-glo assay; type: functional, cell-based; details: SW-620, 72 h
NCI-H929 = test: Antiproliferative activity against human NCI-H929 cells assessed as inhibition of cell growth incubated for 72 hrs by celltiter-glo assay; type: functional, cell-based; details: NCI-H929, 72 h
BT-474 = test: Antiproliferative activity against human BT-474 cells assessed as inhibition of cell growth incubated for 72 hrs by celltiter-glo assay; type: functional, cell-based; details: BT-474, 72 h

Q: Which results are given for CCc1cccc(CC)c1NC(=O)c1nn(C)c2c1CCc1cnc(Nc3ccc(C(=O)NC4CCN(C)CC4)cc3OC(F)(F)F)nc1-2?
A: IC50 (Jurkat): 3610 nM; IC50 (PC-3): 1990 nM; IC50 (MOLM-13): 1040 nM; IC50 (SK-MEL-5): 4490 nM; IC50 (KM12): 586 nM; IC50 (SK-MEL-2): 1490 nM; Activity (HeLa [1]): Active; IC50 [2]: > 10000 nM; IC50 (BXPC-3): 2180 nM; IC50 (SW48): 551 nM; IC50 [3]: > 10000 nM; Activity (U2OS): Active; IC50 [4]: > 10000 nM; IC50 (C-33-A): 3010 nM; IC50 (KARPAS-299): 3530 nM; IC50 [5]: 10000 nM; IC50 (SF-295): 2880 nM; clearance [6]: 10 mL/min/kg; IC50 (Focal adhesion kinase 1): > 10000 nM; IC50 (NCI-H889): 1260 nM; IC50 (NCI-H2228): 5810 nM; Activity (HeLa [7]): Active; IC50 (CAKI-1): 2000 nM; IC50 (NCI-H23): 1220 nM; inhibition (HeLa [8]): Active; IC50 (SK-MEL-28): 2590 nM; IC50 [9]: > 10000 nM; IC50 (SF-268): 1370 nM; IC50 [10]: > 10000 nM; IC50 (MIA PaCa-2): 2550 nM; IC50 [11]: > 10000 nM; IC50 (EKVX): 6980 nM; Activity (HeLa [12]): Active; IC50 (A-431): 469 nM; IC50 (NCI-H522): 1200 nM; Activity (A2780): Active; IC50 (NCI-H82): 2590 nM; IC50 (COLO-678): 10000 nM; Activity (HeLa [13]): Active; IC50 (SW-620): 472 nM; IC50 (NCI-H929): 10000 nM; IC50 (BT-474): 1160 nM
